Reference: patent US10131657B2, “Bromodomain inhibitors” (AbbVie Inc., priority 2013, dated 2018)

Tested on: breast cancer cell line MX-1
Assay: MX-1 cell line proliferation assay, Method B
Assay type: cell-based
Details: Homo sapiens, MX1; MX-1 cells, 384-well, 72 hours, Cell Titer Glo; read-out: Cellular proliferation: EC50 Method B
Description: The impact of compounds of the Examples on cancer cell proliferation was determined using the breast cancer cell line MX-1 (ATCC) in a 3-day proliferation assay and the data are reported in Table 1.
MX-1 cells were maintained in RPMI 1640 medium (Sigma) supplemented with 10% FBS at 37° C. and an atmosphere of 5% CO2. For compound testing, MX-1 cells were plated in 384-well white with clear, flat bottom plates at a density of 750 cells/well in 25 μL of culture media and incubated at 370 overnight to allow cell adhesion and spreading. Ten point compound dilution series were prepared in DMSO via a 3-fold serial dilution from either 10 μM or 1 μM stock and added directly to the appropriate wells of the MX-1 cell plate by an ECHO liquid handler (Labcyte). The final compound concentrations in the wells were 10, 3.25, 1, 0.25, 0.124, 0.040, 0.0124, 0.0031, 0.0015 and 0.0005 μM or 1, 0.33, 0.1, 0.025, 0.0124, 0.004, 0.0012, 0.0003, 0.00015, 0.00005 μM, depending on the concentration of the compound stock solution.
Luminescence readings from the Cell Titer Glo assay were normalized to the DMSO treated cells and analyzed using Accelrys Assay Explorer 3.3 software with sigmoidal curve fitting to obtain EC50s. The minimum significant ratio (MSR) was determined to evaluate assay reproducibility (Eastwood et al., (2006) J Biomol Screen, 11: 253-261). The overall MSR was determined to be 3.3 and a moving MSR (last six run MSR overtime) has averaged 2.1.

With `Cc1cccc(C)c1Oc1ccc(S(C)(=O)=O)cc1-c1cn(C)c(=O)c2[nH]c(-c3nc(C4CCCCC4)no3)cc12` [Example 136, 2-(3-cyclohexyl-1,2,4-oxadiazol-5-yl)-4-[2-(2,6-dimethylphenoxy)-5-(methylsulfonyl)phenyl]-6-methyl-1,6-dihydro-7H-pyrrolo[2,3-c]pyridin-7-one] as the compound, how does the EC50 read?
The EC50 was greater than 1000 nM.

How did the EC50 turn out when `CCNC(=O)c1cc2c(-c3cc(S(=O)(=O)CC)ccc3Oc3c(C)cccc3Cn3ccnc3)cn(C)c(=O)c2[nH]1` [Example 150, N-ethyl-4-{5-(ethylsulfonyl)-2-[2-(1H-imidazol-1-ylmethyl)-6-methylphenoxy]phenyl}-6-methyl-7-oxo-6,7-dihydro-1H-pyrrolo[2,3-c]pyridine-2-carboxamide] was run?
Its EC50 is greater than 10000 nM.

With `Cc1cccc(C)c1Oc1ccc(S(C)(=O)=O)cc1-c1cn(C)c(=O)c2[nH]c(-c3nc(-c4ccccn4)no3)cc12` [Example 139, 4-[2-(2,6-dimethylphenoxy)-5-(methylsulfonyl)phenyl]-6-methyl-2-[3-(pyridin-2-yl)-1,2,4-oxadiazol-5-yl]-1,6-dihydro-7H-pyrrolo[2,3-c]pyridin-7-one] as the compound, how does the EC50 read?
Its EC50 is 532 nM.

With `Cn1cc(-c2cc(S(C)(=O)=O)ccc2Oc2ccc(F)cc2F)c2cc(CN3CC(n4cncn4)C3)[nH]c2c1=O` [Example 156, 4-[2-(2,4-difluorophenoxy)-5-(methylsulfonyl)phenyl]-6-methyl-2-{[3-(1H-1,2,4-triazol-1-yl)azetidin-1-yl]methyl}-1,6-dihydro-7H-pyrrolo[2,3-c]pyridin-7-one] as the compound, how does the EC50 read?
Its EC50 is 332 nM.

How did the EC50 turn out when `CCN(CC)C(C)(C)CNC(=O)c1cc2c(-c3cc(S(C)(=O)=O)ccc3Oc3c(C)cccc3C)cn(C)c(=O)c2[nH]1` [Example 143, N-[2-(diethylamino)-2-methylpropyl]-4-[2-(2,6-dimethylphenoxy)-5-(methylsulfonyl)phenyl]-6-methyl-7-oxo-6,7-dihydro-1H-pyrrolo[2,3-c]pyridine-2-carboxamide] was run?
The EC50 was 532 nM.

Which EC50 does the source give for `CCNC(=O)c1cc2c(-c3cc(S(=O)(=O)CC)ccc3Oc3c(C)cccc3CN3CCCCC3)cn(C)c(=O)c2[nH]1` [Example 147, N-ethyl-4-{5-(ethylsulfonyl)-2-[2-methyl-6-(piperidin-1-ylmethyl)phenoxy]phenyl}-6-methyl-7-oxo-6,7-dihydro-1H-pyrrolo[2,3-c]pyridine-2-carboxamide] here?
Its EC50 is 6320 nM.

How did the EC50 turn out when `Cc1cccc(C)c1Oc1ccc(S(C)(=O)=O)cc1-c1cn(C)c(=O)c2[nH]c(-c3nc(-c4cscn4)no3)cc12` [Example 142, 4-[2-(2,6-dimethylphenoxy)-5-(methylsulfonyl)phenyl]-6-methyl-2-[3-(1,3-thiazol-4-yl)-1,2,4-oxadiazol-5-yl]-1,6-dihydro-7H-pyrrolo[2,3-c]pyridin-7-one] was run?
The EC50 was 615 nM.

With `Cc1noc(C2CCCN2Cc2cc3c(-c4cc(S(C)(=O)=O)ccc4Oc4ccc(F)cc4F)cn(C)c(=O)c3[nH]2)n1` (stereo not shown) [Example 131, 4-[2-(2,4-difluorophenoxy)-5-(methylsulfonyl)phenyl]-6-methyl-2-{[2-(3-methyl-1,2,4-oxadiazol-5-yl)pyrrolidin-1-yl]methyl}-1,6-dihydro-7H-pyrrolo[2,3-c]pyridin-7-one] as the compound, how does the EC50 read?
Its EC50 is 827 nM.

Which EC50 does the source give for `CCNC(=O)c1cc2c(-c3cc(S(=O)(=O)CC)ccc3Oc3c(C)cccc3CCc3ccccc3)cn(C)c(=O)c2[nH]1` [Example 148, N-ethyl-4-{5-(ethylsulfonyl)-2-[2-methyl-6-(2-phenylethyl)phenoxy]phenyl}-6-methyl-7-oxo-6,7-dihydro-1H-pyrrolo[2,3-c]pyridine-2-carboxamide] here?
The EC50 was 1680 nM.

With `CCS(=O)(=O)c1ccc(OC2CCCCC2)c(-c2cn(C)c(=O)c3[nH]c(-c4cnn(C5CCNCC5)c4)cc23)c1` [Example 149, 4-[2-(cyclohexyloxy)-5-(ethylsulfonyl)phenyl]-6-methyl-2-[1-(piperidin-4-yl)-1H-pyrazol-4-yl]-1,6-dihydro-7H-pyrrolo[2,3-c]pyridin-7-one] as the compound, how does the EC50 read?
Its EC50 is 1.18 nM.

`Cc1cccc(C)c1Oc1ccc(S(C)(=O)=O)cc1-c1cn(C)c(=O)c2[nH]c(-c3nc(-c4cnccn4)no3)cc12` [Example 140, 4-[2-(2,6-dimethylphenoxy)-5-(methylsulfonyl)phenyl]-6-methyl-2-[3-(pyrazin-2-yl)-1,2,4-oxadiazol-5-yl]-1,6-dihydro-7H-pyrrolo[2,3-c]pyridin-7-one] was tested. Which EC50 did it give?
Its EC50 is 491 nM.

How did the EC50 turn out when `Cc1cccc(C)c1Oc1ccc(S(C)(=O)=O)cc1-c1cn(C)c(=O)c2[nH]c(-c3nc(C4CCOCC4)no3)cc12` [Example 141, 4-[2-(2,6-dimethylphenoxy)-5-(methylsulfonyl)phenyl]-6-methyl-2-[3-(tetrahydro-2H-pyran-4-yl)-1,2,4-oxadiazol-5-yl]-1,6-dihydro-7H-pyrrolo[2,3-c]pyridin-7-one] was run?
Its EC50 is 443 nM.

For `CCN(CC)CCCCNC(=O)c1cc2c(-c3cc(S(C)(=O)=O)ccc3Oc3c(C)cccc3C)cn(C)c(=O)c2[nH]1` [Example 144, N-[4-(diethylamino)butyl]-4-[2-(2,6-dimethylphenoxy)-5-(methylsulfonyl)phenyl]-6-methyl-7-oxo-6,7-dihydro-1H-pyrrolo[2,3-c]pyridine-2-carboxamide], which EC50 is on record?
Its EC50 is 498 nM.

How did the EC50 turn out when `Cn1cc(-c2cc(S(C)(=O)=O)ccc2Oc2ccc(F)cc2F)c2cc(CN3CCN(c4ccccn4)CC3)[nH]c2c1=O` [Example 132, 4-[2-(2,4-difluorophenoxy)-5-(methylsulfonyl)phenyl]-6-methyl-2-{[4-(pyridin-2-yl)piperazin-1-yl]methyl}-1,6-dihydro-7H-pyrrolo[2,3-c]pyridin-7-one] was run?
Its EC50 is 653 nM.

With `CCNC(=O)c1cc2c(-c3ccc(C(=O)N(CCCN4CCOCC4)Cc4ccccc4)cc3Oc3c(C)cccc3C)cn(C)c(=O)c2[nH]1` [Example 161, 4-[4-{benzyl[3-(morpholin-4-yl)propyl]carbamoyl}-2-(2,6-dimethylphenoxy)phenyl]-N-ethyl-6-methyl-7-oxo-6,7-dihydro-1H-pyrrolo[2,3-c]pyridine-2-carboxamide] as the compound, how does the EC50 read?
Its EC50 is 1950 nM.

Which EC50 does the source give for `Cc1cccc(C)c1Oc1ccc(S(C)(=O)=O)cc1-c1cn(C)c(=O)c2[nH]c(-c3nc(-c4cccnc4)no3)cc12` [Example 138, 4-[2-(2,6-dimethylphenoxy)-5-(methylsulfonyl)phenyl]-6-methyl-2-[3-(pyridin-3-yl)-1,2,4-oxadiazol-5-yl]-1,6-dihydro-7H-pyrrolo[2,3-c]pyridin-7-one] here?
Its EC50 is 465 nM.

Which EC50 does the source give for `Cn1cc(-c2cc(S(C)(=O)=O)ccc2Oc2ccc(F)cc2F)c2cc(CNCCC(N)=O)[nH]c2c1=O` [Example 159, 3-[({4-[2-(2,4-difluorophenoxy)-5-(methylsulfonyl)phenyl]-6-methyl-7-oxo-6,7-dihydro-1H-pyrrolo[2,3-c]pyridin-2-yl}methyl)amino]propanamide] here?
The EC50 was 599 nM.

How did the EC50 turn out when `CCNC(=O)c1cc2c(-c3ccc(C(=O)N(CC(=O)NC)Cc4ccccn4)cc3Oc3c(C)cccc3C)cn(C)c(=O)c2[nH]1` [Example 153, 4-[2-(2,6-dimethylphenoxy)-4-{[2-(methylamino)-2-oxoethyl](pyridin-2-ylmethyl)carbamoyl}phenyl]-N-ethyl-6-methyl-7-oxo-6,7-dihydro-1H-pyrrolo[2,3-c]pyridine-2-carboxamide] was run?
Its EC50 is greater than 10000 nM.

With `CCNC(=O)c1cc2c(-c3cc(S(=O)(=O)CC)ccc3Oc3c(C)cccc3CN3CCOCC3)cn(C)c(=O)c2[nH]1` [Example 146, N-ethyl-4-{5-(ethylsulfonyl)-2-[2-methyl-6-(morpholin-4-ylmethyl)phenoxy]phenyl}-6-methyl-7-oxo-6,7-dihydro-1H-pyrrolo[2,3-c]pyridine-2-carboxamide] as the compound, how does the EC50 read?
The EC50 was 9320 nM.

With `CCNC(=O)/C=C/c1cc2c(-c3cc(S(=O)(=O)CC)ccc3Oc3c(C)cccc3C)cn(C)c(=O)c2[nH]1` [Example 134, (2E)-3-{4-[2-(2,6-dimethylphenoxy)-5-(ethylsulfonyl)phenyl]-6-methyl-7-oxo-6,7-dihydro-1H-pyrrolo[2,3-c]pyridin-2-yl}-N-ethylprop-2-enamide] as the compound, how does the EC50 read?
The EC50 was 238 nM.

How did the EC50 turn out when `CCNC(=O)c1cc2c(-c3cc(S(=O)(=O)CC)ccc3Oc3c(C)cccc3CN3CCCS3(=O)=O)cn(C)c(=O)c2[nH]1` [Example 152, 4-[2-{2-[(1,1-dioxido-1,2-thiazolidin-2-yl)methyl]-6-methylphenoxy}-5-(ethylsulfonyl)phenyl]-N-ethyl-6-methyl-7-oxo-6,7-dihydro-1H-pyrrolo[2,3-c]pyridine-2-carboxamide] was run?
The EC50 was 8140 nM.

Which EC50 does the source give for `Cc1cccc(C)c1Oc1ccc(S(C)(=O)=O)cc1-c1cn(C)c(=O)c2[nH]c(-c3nc(-c4ccccc4)no3)cc12` [Example 137, 4-[2-(2,6-dimethylphenoxy)-5-(methylsulfonyl)phenyl]-6-methyl-2-(3-phenyl-1,2,4-oxadiazol-5-yl)-1,6-dihydro-7H-pyrrolo[2,3-c]pyridin-7-one] here?
The EC50 was greater than 1000 nM.
